Measured values: PubChem BioAssay AID624443 (The Scripps Research Institute Molecular Screening Center, 2012)
The source made the active and inactive calls.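 Rule for the calls: active = inhibition of 30% or more at 50 µM, though no compound was called active; inactive = inhibition below 30% at 50 µM.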

Molecular target: Serine/threonine-protein phosphatase 2A catalytic subunit alpha isoform (Bos taurus) (UniProt P67774)
Assay: inhibitors of bovine PP2A histone dephosphorylation – biochemical, bovine brain PP2A, 33P-phosphohistone, single concentration, round 5, selectivity assay for PP5 inhibitor project, late-stage follow-up (AID 624443)
Settings: purified bovine PP2A, 33P-phosphohistone dephosphorylation, scintillation; at 50 µM; stronger effect = higher value

Serine/threonine-protein phosphatase 2A catalytic subunit alpha isoform (Bos taurus), sequence (P67774 whole entry, looked up, canonical isoform): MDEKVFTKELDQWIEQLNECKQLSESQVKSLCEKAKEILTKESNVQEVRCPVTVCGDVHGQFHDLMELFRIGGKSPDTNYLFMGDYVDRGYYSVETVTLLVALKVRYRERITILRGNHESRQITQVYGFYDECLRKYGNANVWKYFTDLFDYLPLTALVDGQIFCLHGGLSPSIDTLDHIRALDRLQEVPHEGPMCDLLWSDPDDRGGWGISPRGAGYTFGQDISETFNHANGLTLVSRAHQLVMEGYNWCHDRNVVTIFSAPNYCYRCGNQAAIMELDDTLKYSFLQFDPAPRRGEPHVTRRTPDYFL

inhibition, inactive:
O=C(O)c1n[nH]nc1-c1ccccc1F 3.76%
O=C(O)c1n[nH]nc1-c1ccccc1O 0.275%
O=C(O)c1n[nH]nc1-c1cccc(F)c1 1.89%
COc1ccc(-c2n[nH]nc2C(=O)O)cc1 -5.38%
COc1cccc(-c2n[nH]nc2C(=O)O)c1 3.7%
COc1ccccc1-c1n[nH]nc1C(=O)O 24.7%
O=C(O)c1n[nH]nc1-c1ccc(F)cc1 -0.575%
